Assay results from patent US20040014047A1, “Antisense modulation of LIM domain kinase 1 expression” (Isis Pharmaceuticals Inc., priority 2002, published 2004).
Strand notation (5' to 3'): a small letter for the sugar, then the base; units joined by * are phosphorothioate-linked, units joined directly phosphodiester-linked; [ ] holds rarer units or linkages, { } end groups; capitals alone tell only the bases. e = 2'-O-(2-methoxyethyl) (MOE); [5mC] = 5-methylcytosine; d = 2'-deoxy (DNA)

test system: human LIM domain kinase 1 mRNA; assay: Antisense inhibition of human LIM domain kinase 1 mRNA levels, quantitative real-time PCR, A549 cells (screen); format: cell-based; conditions: quantitative real-time PCR, averages from two experiments, screening concentration not given (50 nM to 300 nM used herein)
Method in brief: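 A549 cells at 70% confluency treated with antisense oligonucleotides (all cytidines 5-methylcytidine), harvested 16-24 h later. LIMK1 mRNA measured by real-time RT-PCR with FAM/TAMRA probe, normalized to total RNA by RiboGreen; values are averages of two experiments.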

Row | Substance | % INHIB (inhibition of human LIM domain kinase 1 mRNA levels)
1 | 206214 (antisense e[5mC]*e[5mC]*eG*eG*e[5mC]*d[5mC]*dA*dG*dG*dG*d[5mC]*dA*d[5mC]*d[5mC]*dG*e[5mC]*eA*eG*e[5mC]*eT) [compound 206214] | 87%
2 | 206219 (antisense eT*eG*e[5mC]*eA*e[5mC]*dT*dG*dA*dG*dA*dA*dA*dG*d[5mC]*dT*eT*e[5mC]*eA*e[5mC]*eA) [compound 206219] | 89%
3 | 206212 (antisense eA*e[5mC]*eT*e[5mC]*e[5mC]*d[5mC]*d[5mC]*dA*dT*dT*dT*dG*dG*dT*dT*e[5mC]*e[5mC]*eT*eG*eG) [compound 206212] | 91%
4 | 206236 (antisense e[5mC]*eT*eG*eG*eA*d[5mC]*d[5mC]*dT*dA*d[5mC]*d[5mC]*dT*d[5mC]*dG*d[5mC]*eA*e[5mC]*eA*eG*eG) [compound 206236] | 43%
5 | 206222 (antisense eG*eG*eT*eG*eG*dG*dT*d[5mC]*d[5mC]*d[5mC]*dA*d[5mC]*d[5mC]*dT*d[5mC]*e[5mC]*e[5mC]*eT*eA*eA) [compound 206222] | 63%
6 | 206226 (antisense eT*eA*eG*eG*eT*d[5mC]*d[5mC]*d[5mC]*dA*d[5mC]*dA*dG*d[5mC]*d[5mC]*d[5mC]*e[5mC]*eT*eG*eA*eG) [compound 206226] | 9%
7 | 206232 (antisense eA*eT*eG*e[5mC]*eT*dG*d[5mC]*dA*dG*d[5mC]*dT*d[5mC]*d[5mC]*dT*d[5mC]*e[5mC]*eT*eG*eG*eG) [compound 206232] | 81%
8 | 206179 (antisense eG*e[5mC]*eA*eG*eT*dG*d[5mC]*d[5mC]*d[5mC]*dG*d[5mC]*dA*dG*dT*dA*e[5mC]*eA*eG*e[5mC]*eT) [compound 206179] | 75%
9 | 206186 (antisense eG*eG*e[5mC]*eG*eT*dG*d[5mC]*d[5mC]*dA*dT*dT*dG*dA*dT*dT*eT*e[5mC]*e[5mC]*eA*eA) [compound 206186] | 72%
10 | 206209 (antisense e[5mC]*eT*e[5mC]*eT*eG*dG*dG*d[5mC]*d[5mC]*dA*d[5mC]*dG*dG*d[5mC]*dA*eG*eA*eG*eA*eG) [compound 206209] | 80%
11 | 206198 (antisense eT*e[5mC]*e[5mC]*eA*eG*dG*d[5mC]*dA*dT*d[5mC]*dG*d[5mC]*dA*dT*dG*eA*e[5mC]*e[5mC]*eT*eT) [compound 206198] | 86%
12 | 206175 (antisense eT*eA*eG*e[5mC]*eG*dG*dG*d[5mC]*d[5mC]*d[5mC]*dA*dG*dT*dA*dG*eT*e[5mC]*e[5mC]*eT*eT) [compound 206175] | 83%
13 | 206205 (antisense eA*eA*eA*eG*eG*dA*dT*dG*dG*d[5mC]*d[5mC]*dT*d[5mC]*dT*dT*e[5mC]*eT*e[5mC]*eG*eG) [compound 206205] | 74%

same assay, conditions: real-time PCR, bound stated

Row | Substance | inhibition of human LIM domain kinase 1 expression (text summary of Table 1)
14 | ccacctcccgcggaggaatc (e[5mC]*e[5mC]*eA*e[5mC]*e[5mC]*dT*d[5mC]*d[5mC]*d[5mC]*dG*d[5mC]*dG*dG*dA*dG*eG*eA*eA*eT*e[5mC]; antisense) [ISIS 206208] | at least 65%
15 | acatctgggctcatgcagcc (eA*e[5mC]*eA*eT*e[5mC]*dT*dG*dG*dG*d[5mC]*dT*d[5mC]*dA*dT*dG*e[5mC]*eA*eG*e[5mC]*e[5mC]; antisense) [ISIS 206180] | at least 65%
16 | ggagtgaaagcacccagctg (eG*eG*eA*eG*eT*dG*dA*dA*dA*dG*d[5mC]*dA*d[5mC]*d[5mC]*d[5mC]*eA*eG*e[5mC]*eT*eG; antisense) [ISIS 206225] | at least 65%
17 | ggcgtgccattgatttccaa (eG*eG*e[5mC]*eG*eT*dG*d[5mC]*d[5mC]*dA*dT*dT*dG*dA*dT*dT*eT*e[5mC]*e[5mC]*eA*eA; antisense) [ISIS 206186] | at least 65%
18 | aaaggatggcctcttctcgg (eA*eA*eA*eG*eG*dA*dT*dG*dG*d[5mC]*d[5mC]*dT*d[5mC]*dT*dT*e[5mC]*eT*e[5mC]*eG*eG; antisense) [ISIS 206205] | at least 65%
19 | tccttcttgcagaagagctg (eT*e[5mC]*e[5mC]*eT*eT*d[5mC]*dT*dT*dG*d[5mC]*dA*dG*dA*dA*dG*eA*eG*e[5mC]*eT*eG; antisense) [ISIS 206172] | at least 65%
20 | atgctgcagctcctcctggg (eA*eT*eG*e[5mC]*eT*dG*d[5mC]*dA*dG*d[5mC]*dT*d[5mC]*d[5mC]*dT*d[5mC]*e[5mC]*eT*eG*eG*eG; antisense) [ISIS 206232] | at least 65%
21 | caggtgcaacaaagtagcgt (e[5mC]*eA*eG*eG*eT*dG*d[5mC]*dA*dA*d[5mC]*dA*dA*dA*dG*dT*eA*eG*e[5mC]*eG*eT; antisense) [ISIS 206164] | at least 65%
22 | gtcaacctcatgcactcgac (eG*eT*e[5mC]*eA*eA*d[5mC]*d[5mC]*dT*d[5mC]*dA*dT*dG*d[5mC]*dA*d[5mC]*eT*e[5mC]*eG*eA*e[5mC]; antisense) [ISIS 206163] | at least 65%
23 | ggaattcttcacatctgggc (eG*eG*eA*eA*eT*dT*d[5mC]*dT*dT*d[5mC]*dA*d[5mC]*dA*dT*d[5mC]*eT*eG*eG*eG*e[5mC]; antisense) [ISIS 206182] | at least 65%
24 | gcatcgcatgaccttcacct (eG*e[5mC]*eA*eT*e[5mC]*dG*d[5mC]*dA*dT*dG*dA*d[5mC]*d[5mC]*dT*dT*e[5mC]*eA*e[5mC]*e[5mC]*eT; antisense) [ISIS 206197] | at least 65%
25 | tgtccatgctcttgatgatg (eT*eG*eT*e[5mC]*e[5mC]*dA*dT*dG*d[5mC]*dT*d[5mC]*dT*dT*dG*dA*eT*eG*eA*eT*eG; antisense) [ISIS 206199] | at least 65%
26 | tccaggcatcgcatgacctt (eT*e[5mC]*e[5mC]*eA*eG*dG*d[5mC]*dA*dT*d[5mC]*dG*d[5mC]*dA*dT*dG*eA*e[5mC]*e[5mC]*eT*eT; antisense) [ISIS 206198] | at least 65%

test system: LIM domain kinase 1 mRNA; assay: Antisense inhibition of LIM domain kinase 1 expression, dose response in A549 cells, real-time quantitative PCR; format: cell-based, human; conditions: dose 6 nM, averaged from two experiments, normalized to untreated control
Experimental: When cells reached 70% confluency, they were treated with oligonucleotide. […] Cells were harvested 16-24 hours after oligonucleotide treatment.
PCR reagents were obtained from Invitrogen Corporation, (Carlsbad, Calif.).
Probes and primers to human LIM domain kinase 1 were designed to hybridize to a human LIM domain kinase 1 sequence, using published sequence information (GenBank accession number D26309.1, incorporated herein as SEQ ID NO:4). For human LIM domain kinase 1 the PCR primers were: forward primer: […] (SEQ ID NO: 5) reverse primer: […] (SEQ ID NO: 6) and the PCR probe was: FAM-[…]-TAMRA (SEQ ID NO: 7) where FAM is the fluorescent dye and TAMRA is the quencher dye.
In accordance with the present invention, three of the oligonucleotides targeted to LIM domain kinase 1: ISIS 206212 ([…], SEQ ID NO: 67), ISIS 206219 ([…], SEQ ID NO: 74) and ISIS 206214 ([…], SEQ ID NO: 69) were investigated in a dose response experiment. The scrambled control oligonucleotides used in the dose response study were ISIS 129695 ([…], SEQ ID NO: 147), and ISIS 114845 ([…], SEQ ID NO: 148).
All cytidine residues are 5-methylcytidines.
In the dose-response experiment, with mRNA levels as the endpoint, A549 cells were treated with ISIS 206212, ISIS 206219, ISIS 206214 and control oligonucleotides at doses of 6, 25, 100 and 400 nM oligonucleotide. Data were obtained by real-time quantitative PCR as described in other examples herein and are averaged from two experiments with mRNA levels in the treatment groups, (including the scrambled control), being normalized to an untreated control group.

Row | Substance | Percent Inhibition of LIM Domain Kinase 1 mRNA Levels
27 | 206214 (antisense e[5mC]*e[5mC]*eG*eG*e[5mC]*d[5mC]*dA*dG*dG*dG*d[5mC]*dA*d[5mC]*d[5mC]*dG*e[5mC]*eA*eG*e[5mC]*eT) [compound 206214] | 0%
28 | 206219 (antisense eT*eG*e[5mC]*eA*e[5mC]*dT*dG*dA*dG*dA*dA*dA*dG*d[5mC]*dT*eT*e[5mC]*eA*e[5mC]*eA) [compound 206219] | 0%
29 | 114845 (eT*eA*e[5mC]*eG*eT*d[5mC]*d[5mC]*dG*dG*dA*dG*dG*d[5mC]*dG*dT*eA*e[5mC]*eG*e[5mC]*e[5mC]) [compound 114845] | 0%
30 | 206212 (antisense eA*e[5mC]*eT*e[5mC]*e[5mC]*d[5mC]*d[5mC]*dA*dT*dT*dT*dG*dG*dT*dT*e[5mC]*e[5mC]*eT*eG*eG) [compound 206212] | 0%
31 | 129695 (eT*eT*e[5mC]*eT*eA*d[5mC]*d[5mC]*dT*d[5mC]*dG*d[5mC]*dG*d[5mC]*dG*dA*eT*eT*eT*eA*e[5mC]) [compound 129695] | 2%

same assay, conditions: dose 25 nM, averaged from two experiments, normalized to untreated control

Row | Substance | Percent Inhibition of LIM Domain Kinase 1 mRNA Levels
32 | 206214 (antisense e[5mC]*e[5mC]*eG*eG*e[5mC]*d[5mC]*dA*dG*dG*dG*d[5mC]*dA*d[5mC]*d[5mC]*dG*e[5mC]*eA*eG*e[5mC]*eT) [compound 206214] | 46%
33 | 206219 (antisense eT*eG*e[5mC]*eA*e[5mC]*dT*dG*dA*dG*dA*dA*dA*dG*d[5mC]*dT*eT*e[5mC]*eA*e[5mC]*eA) [compound 206219] | 67%
34 | 114845 (eT*eA*e[5mC]*eG*eT*d[5mC]*d[5mC]*dG*dG*dA*dG*dG*d[5mC]*dG*dT*eA*e[5mC]*eG*e[5mC]*e[5mC]) [compound 114845] | 0%
35 | 206212 (antisense eA*e[5mC]*eT*e[5mC]*e[5mC]*d[5mC]*d[5mC]*dA*dT*dT*dT*dG*dG*dT*dT*e[5mC]*e[5mC]*eT*eG*eG) [compound 206212] | 73%
36 | 129695 (eT*eT*e[5mC]*eT*eA*d[5mC]*d[5mC]*dT*d[5mC]*dG*d[5mC]*dG*d[5mC]*dG*dA*eT*eT*eT*eA*e[5mC]) [compound 129695] | 0%

same assay, conditions: dose 100 nM, averaged from two experiments, normalized to untreated control

Row | Substance | Percent Inhibition of LIM Domain Kinase 1 mRNA Levels
37 | 206214 (antisense e[5mC]*e[5mC]*eG*eG*e[5mC]*d[5mC]*dA*dG*dG*dG*d[5mC]*dA*d[5mC]*d[5mC]*dG*e[5mC]*eA*eG*e[5mC]*eT) [compound 206214] | 84%
38 | 206219 (antisense eT*eG*e[5mC]*eA*e[5mC]*dT*dG*dA*dG*dA*dA*dA*dG*d[5mC]*dT*eT*e[5mC]*eA*e[5mC]*eA) [compound 206219] | 84%
39 | 114845 (eT*eA*e[5mC]*eG*eT*d[5mC]*d[5mC]*dG*dG*dA*dG*dG*d[5mC]*dG*dT*eA*e[5mC]*eG*e[5mC]*e[5mC]) [compound 114845] | 0%
40 | 206212 (antisense eA*e[5mC]*eT*e[5mC]*e[5mC]*d[5mC]*d[5mC]*dA*dT*dT*dT*dG*dG*dT*dT*e[5mC]*e[5mC]*eT*eG*eG) [compound 206212] | 91%
41 | 129695 (eT*eT*e[5mC]*eT*eA*d[5mC]*d[5mC]*dT*d[5mC]*dG*d[5mC]*dG*d[5mC]*dG*dA*eT*eT*eT*eA*e[5mC]) [compound 129695] | 12%

same assay, conditions: dose 400 nM, averaged from two experiments, normalized to untreated control

Row | Substance | Percent Inhibition of LIM Domain Kinase 1 mRNA Levels
42 | 206214 (antisense e[5mC]*e[5mC]*eG*eG*e[5mC]*d[5mC]*dA*dG*dG*dG*d[5mC]*dA*d[5mC]*d[5mC]*dG*e[5mC]*eA*eG*e[5mC]*eT) [compound 206214] | 98%
43 | 206219 (antisense eT*eG*e[5mC]*eA*e[5mC]*dT*dG*dA*dG*dA*dA*dA*dG*d[5mC]*dT*eT*e[5mC]*eA*e[5mC]*eA) [compound 206219] | 93%
44 | 114845 (eT*eA*e[5mC]*eG*eT*d[5mC]*d[5mC]*dG*dG*dA*dG*dG*d[5mC]*dG*dT*eA*e[5mC]*eG*e[5mC]*e[5mC]) [compound 114845] | 24%
45 | 206212 (antisense eA*e[5mC]*eT*e[5mC]*e[5mC]*d[5mC]*d[5mC]*dA*dT*dT*dT*dG*dG*dT*dT*e[5mC]*e[5mC]*eT*eG*eG) [compound 206212] | 97%
46 | 129695 (eT*eT*e[5mC]*eT*eA*d[5mC]*d[5mC]*dT*d[5mC]*dG*d[5mC]*dG*d[5mC]*dG*dA*eT*eT*eT*eA*e[5mC]) [compound 129695] | 62%
